The results in this text go back to patent publication US20070275936A1, “Formulations and Treatment Methods” (priority 1998, published 2007).

Data set [1] has as its system Wistar rats. Briefly: DNBS induced distal colitis in rats. The data set is classed as in vivo. On the procedure:
Groups of 3 male Wistar rats (180±20 grams) fasted for 24 hours before 2,4-dinitrobenzene sulfonic acid (DNBS) or saline challenge were used. Distal colitis was induced by intra-colonic instillation of 0.5 mL of an ethanolic solution of DNBS (30 mg in 0.5 mL of a 30% ethanol in saline solution) after which 2 mL of air was injected through the cannula to ensure that the solution remained in the colon. The volume used was 0.1 mL per injection of 2 and 20 mg/mL of 7-oxodehydroepiandrosterone in a liquid formulation, was administered by subcutaneous injection once a day for 6 days. The formulation contained […] of 7-oxodehydroepiandrosterone in a non-aqueous suspension that contained 2% benzyl alcohol w/v, 0.1% Brij 96 w/v and equal volumes of PEG 300 and propylene glycol. Concentrations of 2 mg/mL and 20 mg/mL were obtained by diluting the […] with vehicle that lacked the active substance.
The first dose was given 30 minutes after DNBS challenge. Sulfasalazine (30 mg/mL in 2% Tween 80 in distilled water) was administered orally (PO) once a day (10 mL/kg/day) for 7 days, the first two doses beginning 24 hours and 2 hours before DNBS challenge. The presence of diarrhea was recorded daily by examining the anal area. Animals were fasted for 24 hours prior to being sacrificed. Animals were sacrificed on day 7 or day 8 and their colons were removed and weighed. Before removal of the colon, signs of adhesion between the colon and other organs were recorded. Also, the presence of ulcerations was noted after weighing of each colon. The “net” change of colon-to-body weight (BW) ratio was normalized relative to saline-challenged baseline group. A 30% decrease in “net” colon-to-body weight ratio was considered significant.
A total of five studies were conducted. Data from the first study are reported in this report. The 7-oxodehydroepiandrosterone at 2 and 20 mg/mL, decreased the net colon-to-body weight ratio by 19 and by 14% relative to vehicle-treated group, respectively. […] The formula 1 compound 3β,7β,17β-trihydroxyandrost-5-ene (AET) was administered by subcutaneous injections of 2 and 20 mg/day for 5 or 6 days, with the first dose injected 30 minutes post-DNBS challenge. The AET formulation was the same as the 7-oxodehydroepiandrosterone formulation, except that AET replaced 7-oxodehydroepiandrosterone. AET decreased the net colon-to-body weight ratio by 15% and 21% relative to controls (see the table below). Animals treated with AET (20 mg/kg) had no diarrhea. […] The same formulations containing BrEA hemihydrate (100 mg/mL) or dehydroepiandrosterone (20 mg/mL) decreased the net colon-to-body weight ratio by 21 and 3%, respectively relative to controls.

Data set [2] deals with pentosephosphate shunt (PPS) activity in normal human RBC. In words: PPS flux in whole normal human RBC. The data set is classed as cell-based. From the text:
The effect of BrEA on pentosephosphate shunt (PPS) activity in normal human RBC was examined using whole cells. Since glucose-6-phosphate dehydrogenase (“G6PD”) is the limiting enzyme of the PPS, PPS flux measurement is considered to better reflect G6PD activity in the whole cell compared to G6PD activity measurement in a cell lysate. […] PPS flux and G6PD activity in the whole RBC depends on a number of factors (the concentration of NADPH, NAD, and ATP, and intracellular pH), which are kept constant if the measurement is performed in the lysate and may vary in the whole RBC. Levels of G6PD activity in cells is considerably above normal basal needs and inhibition of overall G6PD activity might have no or minor consequence on PPS flux in the whole cell. […] A series of experiments were performed using varying amounts of BrEA and PPS flux was measured in unstimulated basal RBC and in methylene-blue (MB)-stimulated RBC.
Different concentrations of BrEA (0.3, 3.5 and 7 micromolar, final) were supplemented to suspensions of washed RBC suspended in RPMI, pH 7.4 at 10% hematocrit, whereby PPS flux was immediately measured without further incubation and without further washings.
In these experiments, different concentrations of BrEA ˜0.8, 8 and 80 micromolar, final) were supplemented to suspensions of washed RBC suspended in RPMI, pH 7.4 at 10% hematocrit. After a 90-min incubation at 37° C. with and without BrEA, PPS flux was measured.

A short description of data set [3]: Oral administration of 14C BrEA to rats, preliminary pharmacokinetics. The data set is classed as in vivo. Conditions: 14C BrEA solubilized in different excipients. On the procedure:
Nonclinical studies were conducted using an oral and a subcutaneous formulation of BrEA. Rats were orally administered ^14C BrEA solubilized in different excipients to determine the levels of drug in blood and various tissues.

On to `C[C@]12CC[C@H](O)CC1=CC[C@@H]1[C@@H]2CC[C@]2(C)C(=O)CC[C@@H]12` [DHEA, dehydroepiandrosterone, reference compound], for which the “animals with severe acute inflammation” value in data set [1] (7 days after DNBS challenge, 3 of 10 in immunosteroid vehicle controls) turned out to be 10 animals. Besides, the “animals with moderate acute inflammation” value in data set [1] (7 days after DNBS challenge, 5 of 10 in immunosteroid vehicle controls) is 0 animals. Moreover, in data set [1] (14 days after DNBS challenge, 8 of 10 in immunosteroid vehicle controls), the “animals with severe chronic inflammation” value is reported as 3 animals. Moreover, the “decrease of net colon-to-body weight ratio relative to vehicle/controls” value in data set [1] (DNBS rats, 20 mg/mL formulation s.c.) was determined as 3%. Also, the “animals with severe ulceration” value in data set [1] (day 7 (acute inflammation) after DNBS challenge, vehicle control 8 of 10) was 10 of 10; in data set [1] (day 14 (chronic inflammation) after DNBS challenge, vehicle controls 5 of 10), 0 of 10.

For orientation: inhibition means the change of the read-out against control, counted positive when it falls. As to `C[C@]12CC[C@H](O)C[C@@H]1CC[C@@H]1[C@@H]2CC[C@]2(C)C(=O)[C@H](Br)C[C@@H]12` [BrEA, 16α-bromo-3β-hydroxy-5α-androstane-17-one], the PPS flux in data set [2] (0.3 μM, MB stimulated RBC, no incubation, DMSO control 5090) is listed as 5000 micromoles/hour/ml RBC; in data set [2] (0.3 μM, unstimulated RBC, no incubation, DMSO control 270), 250 micromoles/hour/ml RBC; in data set [2] (0.8 μM, MB stimulated, 90-min incubation, average of 3 experiments, DMSO control 4890), 4930 micromoles/hour/ml RBC; in data set [2] (0.8 μM, unstimulated, 90-min incubation at 37° C., average of 3 experiments, DMSO control 480) it was 410 micromoles/hour/ml RBC; in data set [2] (3.5 μM, MB stimulated RBC, no incubation, DMSO control 5090), 4950 micromoles/hour/ml RBC; in data set [2] (3.5 μM, unstimulated RBC, no incubation, DMSO control 270) it was 270 micromoles/hour/ml RBC. Besides, the PPS flux in data set [2] (7 μM, MB stimulated RBC, no incubation, DMSO control 5090) turned out to be 4660 micromoles/hour/ml RBC; in data set [2] (7 μM, unstimulated RBC, no incubation, DMSO control 270), 295 micromoles/hour/ml RBC; in data set [2] (8 μM, MB stimulated, 90-min incubation, average of 3 experiments, DMSO control 4890) it was 4430 micromoles/hour/ml RBC; in data set [2] (8 μM, unstimulated, 90-min incubation, average of 3 experiments, DMSO control 480) it was 450 micromoles/hour/ml RBC; in data set [2] (80 μM, MB stimulated, 90-min incubation, average of 3 experiments, DMSO control 4890), 3660 micromoles/hour/ml RBC; in data set [2] (80 μM, unstimulated, 90-min incubation, average of 3 experiments, DMSO control 480), 450 micromoles/hour/ml RBC. Moreover, the “inhibition of MB-stimulated PPS flux” value in data set [2] (7 μM, no incubation) was “minor inhibition”. The inhibition at 8 µM in data set [2] (Homo sapiens, 1.5 h, 8 micromolar, 90-min incubation, p=0.006 vs control+DMSO, read-out: Inhibition of MB-stimulated PPS flux) came out at 10%. Further, in data set [2] (Homo sapiens, 1.5 h, 80 micromolar, 90-min incubation, p=0.002 vs control+DMSO, read-out: Inhibition of MB-stimulated PPS flux), the inhibition at 80 µM worked out at 25%. Also, the “excreted in the feces” value in data set [3] is on record as “at least 80%”.
